This note sets out measurements from US20100331298A1, “Carboxamide Compounds and Their Use” (CytoPathfinder, Inc., priority 2007, published 2010).

For the assay, the target named is T1, CCR2b (Homo sapiens, UniProt P41597).
T1 construct: host or cells: AequoScreen CCR2b cells
T1 sequence (P41597 1-360 isoform P41597-2): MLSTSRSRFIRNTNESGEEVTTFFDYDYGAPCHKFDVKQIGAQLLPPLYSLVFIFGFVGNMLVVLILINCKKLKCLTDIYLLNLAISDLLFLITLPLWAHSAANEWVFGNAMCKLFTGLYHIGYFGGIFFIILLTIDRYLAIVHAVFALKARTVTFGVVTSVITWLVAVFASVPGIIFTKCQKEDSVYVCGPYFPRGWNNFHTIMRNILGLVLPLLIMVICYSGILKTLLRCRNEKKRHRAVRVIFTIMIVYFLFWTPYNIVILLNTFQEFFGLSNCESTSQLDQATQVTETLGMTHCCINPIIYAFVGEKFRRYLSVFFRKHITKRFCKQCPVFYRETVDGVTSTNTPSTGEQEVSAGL
Description: AequoScreen assay, Ca++ flux (antagonist mode against reference agonist MCP-1). It is filed as cell-based. Conditions: AequoScreen CCR2b (FAST-060A) cells; inhibition of reference agonist MCP-1 at its EC80. On the procedure:
The biological activity of the compounds described herein can be evaluated using assays known in the art, such as the AequoScreen™ assay.
AequoScreen™ CCR2b (FAST-060A) cells grown to mid-log phase in culture media without antibiotics are detached with PBS-EDTA, centrifuged and resuspended in assay buffer (DMEM/HAM's F12 with HEPES, without phenol red+0.1% BSA protease free) at a concentration of 1×10^6 cells/mL. Cells are incubated at room temperature for at least 4 hours with coelenterazine h. Dose response curves are performed before testing. The reference agonist is MCP-1.
For agonist testing, 50 μL of cell suspension is mixed with 50 μL of test compound in a 96-well plate. The resulting emission of light is recorded using a Hamamatsu Functional Drug Screening System 6000 (FDSS 6000).
Following an incubation of 15 minutes after the first injection, 100 μL of the resulting cell suspension containing the test compound is mixed with 100 μL of the reference agonist in the 96 well test plate. The resulting emission of light is recorded using the same luminometer as for agonist testing.
To standardize the emission of recorded light (determination of the “100% signal”) across plates and across different experiments, some of the wells contained 100 μM digitonin, a saturating concentration of ATP (20 μM) and a concentration of reference agonist equivalent to the EC50 obtained during test validation.
Agonist activity of a test compound can be expressed as a percentage of the activity of the reference agonist at its EC100 concentration. Antagonist activity of a test compound can be expressed as a percentage of the inhibition of reference agonist activity at its EC80) concentration.

As usually defined, the IC50 is the concentration needed to halve the response being measured. Lower therefore signals greater potency in that assay.

Structures can show the parent of a compound that is named as a salt.

The molecule `Cn1c(=O)ccc2ccc(CN3CCC(CC4CC4)(C(=O)NCc4cc(C(F)(F)F)cc(C(F)(F)F)c4)CC3)cc21` [Example 1, N-(3,5-Bis(trifluoromethyl)benzyl)-4-(cyclopropylmethyl)-1-((1-methyl-2-oxo-1,2-dihydroquinolin-7-yl)methyl)piperidine-4-carboxamide] yielded a half-maximal inhibitory concentration (IC50) of less than 0.2 µM.

Regarding `Cn1c(=O)ccc2ccc(CN3CCC(C(=O)NCc4cc(C(F)(F)F)cc(C(F)(F)F)c4)(C4CC4)CC3)cc21` [Example 3, N-(3,5-Bis(trifluoromethyl)benzyl)-4-cyclopropyl-1-((1-methyl-2-oxo-1,2-dihydroquinolin-7-yl)methyl)piperidine-4-carboxamide], the 50% inhibitory concentration (IC50) is greater than 1 µM.

`O=C1COc2ccc(C(O)CN3CCC(CC4CC4)(C(=O)NCc4cc(C(F)(F)F)cc(C(F)(F)F)c4)CC3)cc2N1` (stereo not drawn) [Example 5, N-(3,5-Bis(trifluoromethyl)benzyl)-4-(cyclopropylmethyl)-1-(2-hydroxy-2-(3-oxo-3,4-dihydro-2H-benzo[b][1,4]oxazin-6-yl)ethyl)piperidine-4-carboxamide] gave an IC50 greater than 1 µM.

Molecule `O=C1COc2ccc(CN3CCC(CC4CC4)(C(=O)NCc4cc(C(F)(F)F)cc(C(F)(F)F)c4)CC3)cc2N1` [Example 6, N-(3,5-Bis(trifluoromethyl)benzyl)-4-(cyclopropylmethyl)-1-((3-oxo-3,4-dihydro-2H-benzo[b][1,4]oxazin-6-yl)methyl)piperidine-4-carboxamide] registered a half-inhibitory concentration (IC50) greater than 1 µM.

`O=C(NCc1cc(C(F)(F)F)cc(C(F)(F)F)c1)C1(CC2CC2)CCN(Cc2ccc3cc[nH]c(=O)c3c2)CC1` [Example 8, N-(3,5-Bis(trifluoromethyl)benzyl)-4-(cyclopropylmethyl)-1-((1-oxo-1,2-dihydroisoquinolin-7-yl)methyl)piperidine-4-carboxamide] yielded an IC50 greater than 1 µM.

Regarding `O=C(NCc1cc(C(F)(F)F)cc(C(F)(F)F)c1)C1(CC2CC2)CCN(Cc2cccc3c(=O)[nH]ccc23)CC1` [Example 9, N-(3,5-Bis(trifluoromethyl)benzyl)-4-(cyclopropylmethyl)-1-((1-oxo-1,2-dihydroisoquinolin-5-yl)methyl)piperidine-4-carboxamide], the IC50 lay in the range of 0.2 to 1 µM.

The molecule `O=C1COc2ccc(CCN3CCC(CC4CC4)(C(=O)NCc4cc(C(F)(F)F)cc(C(F)(F)F)c4)CC3)cc2N1` [Example 10, N-(3,5-Bis(trifluoromethyl)benzyl)-4-(cyclopropylmethyl)-1-(2-(3-oxo-3,4-dihydro-2H-benzo[b][1,4]oxazin-6-yl)ethyl)piperidine-4-carboxamide] returned an IC50 greater than 1 µM.

In the case of `O=C(NCc1cc(C(F)(F)F)cc(C(F)(F)F)c1)C1(CC2CC2)CCN(Cc2ccc3ccc(=O)[nH]c3c2)CC1` [Example 11, N-(3,5-Bis(trifluoromethyl)benzyl)-4-(cyclopropylmethyl)-1-((2-oxo-1,2-dihydroquinolin-7-yl)methyl)piperidine-4-carboxamide], the IC50 was greater than 1 µM.

In turn, `CC(C)CC1(C(=O)NCc2cc(C(F)(F)F)cc(C(F)(F)F)c2)CCN(Cc2ccc3c(c2)OCCN3C)CC1` [Example 17, N-(3,5-Bis(trifluoromethyl)benzyl)-4-isobutyl-1-((4-methyl-3,4-dihydro-2H-benzo[b][1,4]oxazin-7-yl)methyl)piperidine-4-carboxamide] showed an IC50 greater than 1 µM.

Take `CC(C)CC1(C(=O)NCc2cc(C(F)(F)F)cc(C(F)(F)F)c2)CCN(Cc2ccc3c(c2)nnn3C)CC1` [Example 18, N-(3,5-Bis(trifluoromethyl)benzyl)-4-isobutyl-1-((1-methyl-1H-benzo[d][1,2,3]triazol-5-yl)methyl)piperidine-4-carboxamide]: the half-maximal inhibitory concentration (IC50) was greater than 1 µM.

The molecule `O=C(NCc1cc(C(F)(F)F)cc(C(F)(F)F)c1)C1(CC2CC2)CCN(Cc2ccc3nc[nH]c3c2)CC1` [Example 19, 1-((1H-Benzo[d]imidazol-6-yl)methyl)-N-(3,5-bis(trifluoromethyl)benzyl)-4-(cyclopropylmethyl)piperidine-4-carboxamide] registered an IC50 greater than 1 µM.

For the molecule `Cn1c(=O)ccc2ccc(CN3CCC(CC4CC4)(C(=O)NCc4cc(C(F)(F)F)cc(C(F)(F)F)c4)C3)cc21` (stereo not drawn) [Example 20, N-(3,5-Bis(trifluoromethyl)benzyl)-3-(cyclopropylmethyl)-1-((1-methyl-2-oxo-1,2-dihydroquinolin-7-yl)methyl)pyrrolidine-3-carboxamide], the IC50 is less than 0.2 µM.

Molecule `O=C(NCc1cc(C(F)(F)F)cc(C(F)(F)F)c1)C1(CC2CC2)CCN(Cc2ccc3[nH]ncc3c2)C1` (stereo not drawn) [Example 21, 1-((1H-Indazol-5-yl)methyl)-N-(3,5-bis(trifluoromethyl)benzyl)-3-(cyclopro-pylmethyl)pyrrolidine-3-carboxamide dihydrochloride] had a half-inhibitory concentration (IC50) of less than 0.2 µM.

`O=C1COc2ccc(CN3CCC(CC4CC4)(C(=O)NCc4cc(C(F)(F)F)cc(C(F)(F)F)c4)C3)cc2N1` (stereo not drawn) [Example 22, N-(3,5-Bis(trifluoromethyl)benzyl)-3-(cyclopropylmethyl)-1-((3-oxo-3,4-dihydro-2H-benzo[b][1,4]oxazin-6-yl)methyl)pyrrolidine-3-carboxamide] registered a 50% inhibitory concentration (IC50) of 0.2 to 1 µM.

In the case of `Cn1c(=O)ccc2ccc(CN3CCC(CC4CC4)(C(=O)NCc4cc(C#N)cc(C(F)(F)F)c4)C3)cc21` (stereo not drawn) [Example 23, N-(3-Cyano-5-(trifluoromethyl)benzyl)-3-(cyclopropylmethyl)-1-((1-methyl-2-oxo-1,2-dihydroquinolin-7-yl)methyl)pyrrolidine-3-carboxamide TFA salt], the half-inhibitory concentration (IC50) is less than 0.2 µM.

On to `Cn1c(=O)oc2ccc(CN3CCC(CC4CC4)(C(=O)NCc4cc(C#N)cc(C(F)(F)F)c4)C3)cc21` (stereo not drawn) [Example 24, N-(3-Cyano-5-(trifluoromethyl)benzyl)-3-(cyclopropylmethyl)-1-((3-methyl-2-oxo-2,3-dihydrobenzo[d]oxazol-5-yl)methyl)pyrrolidine-3-carboxamide HCl salt], for which the concentration for half-maximal inhibition (IC50) is less than 0.2 µM.

In the case of `Cn1c(=O)oc2ccc(CN3CCC(CC4CC4)(C(=O)NCc4cc(C(F)(F)F)cc(C(F)(F)F)c4)CC3)cc21` [Example 26, N-(3,5-Bis(trifluoromethyl)benzyl)-4-(cyclopropylmethyl)-1-((3-methyl-2-oxo-2,3-dihydrobenzo[d]oxazol-5-yl)methyl)piperidine-4-carboxamide], the IC50 lay within 0.2 to 1 µM.

For the molecule `CN1C(=O)COc2ccc(CN3CCC(CC4CC4)(C(=O)NCc4cc(C(F)(F)F)cc(C(F)(F)F)c4)CC3)cc21` [Example 27, N-(3,5-Bis(trifluoromethyl)benzyl)-4-(cyclopropylmethyl)-1-((4-methyl-3-oxo-3,4-dihydro-2H-benzo[b][1,4]oxazin-6-yl)methyl)piperidine-4-carboxamide], the IC50 is 0.2 to 1 µM.

In turn, `COCC1(C(=O)N2CC(c3cc(C(F)(F)F)ccn3)C2)CCN(Cc2ccc3oc(=O)n(C)c3c2)C1` (stereo not drawn) [Example 28, 5-((3-(Methoxymethyl)-3-(3-(4-(trifluoromethyl)pyridin-2-yl)azetidine-1-carbonyl)pyrrolidin-1-yl)methyl)-3-methylbenzo[d]oxazol-2(3H)-one] came in with a concentration for half-maximal inhibition (IC50) of 0.2 to 1 µM.

As to `COCC1(C(=O)N2CCN(c3cc(C(F)(F)F)ccn3)CC2)CCN(Cc2ccc3oc(=O)n(C)c3c2)C1` (stereo not drawn) [Example 29, 5-((3-(Methoxymethyl)-3-(4-(4-(trifluoromethyl)pyridin-2-yl)piperazine-1-carbonyl)pyrrolidin-1-yl)methyl)-3-methylbenzo[d]oxazol-2(3H)-one], the 50% inhibitory concentration (IC50) was in the range of 0.2 to 1 µM.

Regarding “N-(3,5-Bis(trifluoromethyl)benzyl)-4-(cyclopropylmethyl)-1-((3-methyl-2-oxo-2,3-dihydrobenzo[d]thiazol-6-yl)methyl)piperidine-4-carboxamide TFA salt [Example 25]”, the IC50 was less than 0.2 µM.
